This note sets out measurements from patent publication US8012956B2, “Tropane compounds” (Exelixis, Inc., priority 2007, dated 2011).

pIC50: −log10 of the molar value.

The target of the assay is HSP90 (Homo sapiens, UniProt P07900). Kind of assay: HSP90 inhibition (HSP90 IC50). Type of assay: biochemical.
In general, pIC50 refers to −log10 of the IC50, conventionally taken in molar units. A lower pIC50 goes with a high IC50. For the compound `COCCCNC(=O)c1ccc(N2[C@@H]3CC[C@H]2C[C@@H](NC(=O)c2cccc(OC)c2C)C3)nc1` [6-[3-endo-({[2-methyl-3-(methyloxy)phenyl]carbonyl}amino)-8-azabicyclo[3.2.1]oct-8-yl]-N-[3-(methyloxy)propyl]pyridine-3-carboxamide], the pIC50 is 6.00 to 6.30.

The compound `NC(=O)c1ccc(C(=O)N[C@H]2C[C@H]3CC[C@@H](C2)N3c2ccc(C(=O)CCN3CCCC3)cn2)cc1NCC1CC1` [2-[(cyclopropylmethyl)amino]-N4-{8-[5-(3-pyrrolidin-1-ylpropanoyl)pyridin-2-yl]-8-azabicyclo[3.2.1]oct-3-endo-yl}benzene-1,4-dicarboxamide] showed a pIC50 greater than 6.30.

`CC(=O)c1ccc(N2[C@@H]3CC[C@H]2C[C@@H](NC(=O)c2ccc(C(N)=O)c(NC4CCNC4)c2)C3)nc1` (stereo partly drawn) [N4-[8-(5-acetylpyridin-2-yl)-8-azabicyclo[3.2.1]oct.3-endo-yl]-2-(pyrrolidin-3-ylamino)benzene-1,4-dicarboxamide] gave a pIC50 greater than 6.30.

Regarding `CCCc1c(OC)cccc1C(=O)N[C@H]1C[C@H]2CC[C@@H](C1)N2c1ccc(C(=O)NCc2ccccc2)cn1` [6-[3-endo-({[3-(methyloxy)-2-propylphenyl]carbonyl}amino)-8-azabicyclo[3.2.1]oct-8-yl]-N-(phenylmethyl)pyridine-3-carboxamide], the pIC50 is 5.00 to 5.70.

In the case of `Cc1cc(C(N)=O)c(NCC2CCCC2)cc1C(=O)N[C@H]1C[C@H]2CC[C@@H](C1)N2c1ccc(C(=O)C2CC2)cn1` [5-[(cyclopentylmethyl)amino]-N-{8-[5-(cyclopropylcarbonyl)pyridin-2-yl]-8-azabicyclo[3.2.1]oct-3-endo-yl}-2-methylbenzene-1,4-dicarboxamide], the pIC50 is greater than 6.30.

`CCC(CC)Nc1cc(C(=O)NC2CC3CCC(C2)N3c2ccc(C(=O)N[C@@H]3CCN(C(C)C)C3)cn2)ccc1C(N)=O` (stereo partly drawn) [2-[(1-ethylpropyl)amino]-N4-{8-[5-({[(3R)-1-(1-methylethyl)pyrrolidin-3-yl]amino}carbonyl)pyridin-2-yl]-8-azabicyclo[3.2.1]oct-3-endo-yl}benzene-1,4-dicarboxamide] gave a pIC50 greater than 6.30.

Regarding `Cc1cc(C(=O)N[C@H]2C[C@H]3CC[C@@H](C2)N3c2ccc(C(=O)NC3CCN(C(C)C)CC3)cn2)c(C)cc1C(N)=O` [2,5-dimethy˜-N-{8-[5-({[1-(1 methylethyl)piperidin-4-yl]amino}carbonyl)pyridin-2-yl]-8-azabicyclo[3.2.1]oct-3-endo-yl}benzene-1,4-dicarboxamide], the pIC50 was 6.00 to 6.30.

Compound `CC(=O)c1ccc(N2[C@@H]3CC[C@H]2C[C@@H](NC(=O)c2ccc(C(N)=O)c(NCCCNC(C)C)c2)C3)nc1` [N4-[8-(5-acetylpyridin-2-yl)-8-azabicyclo[3.2.1]oct-3-endo-yl]-2-({3-[(1-methylethyl)amino]propyl}amino) benzene-1,4-dicarboxamide] showed a pIC50 of 6.00 to 6.30.

Compound `Cc1cc(C(N)=O)c(NC(CF)CF)cc1C(=O)N[C@H]1C[C@H]2CC[C@@H](C1)N2c1ccc(C(=O)C2CC2)cn1` [N-{8-[5-(cyclopropylcarbonyl)pyridin-2-yl]-8-azabicyclo[3.2.1]oct-3-endo-yl}-5-{[2-fluoro-1-(fluoromethyl)ethyl]amino}-2-methylbenzene-1,4-dicarboxamide] had a pIC50 greater than 6.30.

As for `C[C@H](NC(=O)c1ccc(N2C3CCC2CC(NC(=O)c2ccc(C(N)=O)c(NC4CCC4)c2)C3)nc1)c1ccc(N2CCN(C)CC2)cc1` (stereo partly drawn) [2-(cyclobutylamino)-N4-(8-{5-[({(1S) 1-[4-(4-methylpiperazin-1-yl)phenyl]ethyl}amino)carbonyl]pyridin-2-yl}-8-azabicyclo[3.2.1]oct-3-endo-yl)benzene-1,4-dicarboxamide], the pIC50 is greater than 6.30.

The compound `CCC(CC)Nc1cc(C(=O)NC2CC3CCC(C2)N3c2ccc(C(=O)N[C@@H]3CCN(CC)C3)cn2)ccc1C(N)=O` (stereo partly drawn) [2-[(1-ethylpropyl)amino]-N4-{8-[5-({[(3R)-1-ethylpyrrolidin-3-yl]amino}carbonyl)pyridin-2-yl]-8-azabicyclo[3.2.1]oct-3-endo-yl}benzene-1,4-dicarboxamide] showed a pIC50 greater than 6.30.

On to “N-[8-(5-acetylpyradin-2-yl)-8- azabicyclo[3.2.1]oct-3-endo-yl]-2- methyl-3-(methyloxy)benzamide”, for which the pIC50 was 6.00 to 6.30.

The compound `COc1cccc(C(=O)N[C@H]2C[C@H]3CC[C@@H](C2)N3c2ccc(C(=O)NCc3cccc(N4CCN(C)CC4)c3)cn2)c1C` [6-[3-endo-({[2-methyl-3-(methyloxy)phenyl]carbony}amino)-8-azabicyclo[3.2.1]oct-8-yl]-N-{[3-(4-methylpiperazin-1-yl)phenyl]methyl}pyridine-3-carboxamide] gave a pIC50 greater than 6.30.

Take `Cc1c(N)cccc1C(=O)N[C@H]1C[C@H]2CC[C@@H](C1)N2c1ccc(C(=O)NCc2ccccc2)cn1` [6-(3-endo-{[(3-amino-2-methylphenyl)carbonyl]amino}-8-azabicyclo[3.2.1]oct-8-yl)-N-(phenylmethyl)pyridine-3-carboxamide]: the pIC50 is 5.00 to 5.70.

In the case of `CCN(CC)CCOc1ccc([C@H](C)NC(=O)c2ccc(N3C4CCC3CC(NC(=O)c3cccc(OC)c3C)C4)nc2)c(F)c1` (stereo partly drawn) [N-[(1S)-1-(4-{[2-(diethylamino)ethyl]oxy}-2-fluorophenyl)ethyl]-6-[3-endo-({[2-methyl-3-(methyloxy)phenyl]carbonyl}amino)-8-azabicyclo[3.2.1]oct-8-yl]pyridine-3-carboxamide], the pIC50 was greater than 6.30.

`CC(=O)c1ccc(N2[C@@H]3CC[C@H]2C[C@@H](NC(=O)c2ccc(C(N)=O)c(NCC4CC4)c2)C3)nc1` [N4-[8-(5-acetylpyridin-2-yl)-8-azabicyclo[3.2.1]oct-3-endo-yl]-2-[(cyclopropylmethyl)amino]benzene-1,4-dicarboxamide] gave a pIC50 greater than 6.30.

Compound `CCC(CC)Nc1cc(C(=O)N[C@H]2C[C@H]3CC[C@@H](C2)N3c2ccc(C(=O)C3CC3)cn2)c(C(F)(F)F)cc1C(N)=O` [N-{8-[5-(cyclopropylcarbonyl)pyridine-2-yl]-8-azabicyclo[3.2.1]oct-3-endo-yl}-5-[(1-ethylpropyl)amino]-2-(trifluoromethyl)benzene-1,4-dicarboxamide] gave a pIC50 greater than 6.30.

`COc1cccc(C(=O)N[C@H]2C[C@H]3CC[C@@H](C2)N3c2ccc(C(=O)NC3CCN(C)CC3)cn2)c1C` [6-[3-endo-({[2-methyl-3-(methyloxy)phenyl]carbonyl}amino)-8-azabicyclo[3.2.1]oct-8-yl]-N-(1-methylpiperidin-4-yl)pyridine-3-carboxamide] gave a pIC50 of 6.00 to 6.30.

Take `COc1cccc(C(=O)NC2CC3CCC(C2)N3c2ccc(C(=O)N[C@H](C)C(C)C)cn2)c1C` (stereo partly drawn) [N-[(1R)-1,2-dimethylpropyl]-6-[3-endo-({[2-methyl-3-(methyloxy)phenyl]carbonyl}amino)-8-azabicyclo[3.2.1]oct-8-yl]pyridine-3-carboxamide]: the pIC50 was 5.00 to 5.70.

As for `CC(=O)c1ccc(N2C3CCC2CC(NC(=O)c2ccc(C(N)=O)c(N[C@@H]4CCOC4)c2)C3)nc1` (stereo partly drawn) [N4-[8-(5-acetylpyridin-2-yl)-8-azabicyclo[3.2.1]oct-3-endo-yl]-2-[(3R)-tetrahydrofuran-3-ylamino]benzene-1,4-dioarboxamide], the pIC50 is greater than 6.30.

For `Cc1cc(C(N)=O)c(NC(C(C)C)C(C)C)cc1C(=O)N[C@H]1C[C@H]2CC[C@@H](C1)N2c1ccc(C(=O)C2CC2)cn1` [N-{8-[5-(cyclopropylcarbonyl)pyridin-2-yl]-8-azabicyclo[3.2.1]oct-3-endo-yl}-2-methyl-5-{[2-methyl-1-(1-methylethyl)propyl]amino}benzene-1,4-dicarboxamide], the pIC50 is greater than 6.30.

On to `COc1cccc(C(=O)NC2CC3CCC(C2)N3c2ccc(C(=O)N[C@H]3CCN(Cc4ccccc4)C3)cn2)c1C` (stereo partly drawn) [6-[3-endo-({[2-methyl-3-(methyloxy)phenyl]carbonyl}amino)-8-azabicyclo[3.2.1]oct-8-yl]-N-[(3S)-1-(phenylmethyl)pyrrolidin-3-yl]pyridine-3-carboxamide], for which the pIC50 was 6.00 to 6.30.

As to `COc1cccc(C(=O)NC2CC3CCC(C2)N3c2ccc(C(=O)NCC(O)CO)cn2)c1C` (stereo not drawn) [N-(2,3-dihydroxypropyl)-6-[3-endo-({[2-methyl-3-(methyloxy)phenyl]carbonyl}amino)-8-azabicyclo[3.2.1]oct-8-yl]pyridine-3-carboxamide], the pIC50 was 5.70 to 6.00.

Take `Cc1cc(N)ccc1C(=O)N[C@H]1C[C@H]2CC[C@@H](C1)N2c1ccc(C(N)=O)cn1` [6-(3-endo-{[(4-amino-2-methylphenyl)carbonyl]amino}-8-azabicyclo[3.2.1]oct-8-yl)pyridine-3-carboxamide]: the pIC50 is 5.00 to 5.70.

Compound `Cc1cc(C(N)=O)ccc1C(=O)N[C@H]1C[C@H]2CC[C@@H](C1)N2c1ccc(C(=O)NCc2ccccc2)cn1` [2-methyl-N 1-[8-(5-{[(phenylmethyl)amino]carbonyl}pyridin-2-yl)-8-azabicyclo[3.2.1]oct-3-endo-yl]benzene-1,4-dicarboxamide] had a pIC50 of 6.00 to 6.30.

Compound `CC(Nc1cc(C(=O)N[C@H]2C[C@H]3CC[C@@H](C2)N3c2ccc(C(=O)C3CC3)cn2)ccc1C(N)=O)C1CC1` (stereo partly drawn) [N4-{8-[5-(cyclopropylcarbonyl)pyridin-2-yl]-8-azabicyclo[3.2.1]oct-3-endo-yl}-2-[(1-cyclopropylethyl)amino]benzene-1,4-dicarboxamide] had a pIC50 greater than 6.30.

`CC(C)(C)CNc1cc(C(=O)N[C@H]2C[C@H]3CC[C@@H](C2)N3c2ccc(C(=O)C3CC3)cn2)c(Br)cc1C(N)=O` [2-bromo-N-{8-[5-(cyclopropylcarbonyl)pyridin-2-yl]-8-azabicyclo[3.2.1]oct-3-endo-yl}-5-[(2,2-dimethylpropyl)amino]benzene-1,4-dicarboxamide] had a pIC50 greater than 6.30.

As for `COc1ccc(CNC(=O)c2ccc(N3[C@@H]4CC[C@H]3C[C@@H](NC(=O)c3cccc(OC)c3C)C4)nc2)c(Cl)c1` [N-{[2-chloro-4-(methyloxy)phenyl]methyl}-6-[3-endo-({[2-methyl-3-(methyloxy)phenyl]carbonyl}amino)-8-azabicyclo[3.2.1]oct-8-yl]pyridine-3-carboxamide], the pIC50 was greater than 6.30.
